Target: Sphingosine kinase 1 (SK1) (Homo sapiens, UniProt Q9NYA1)
Assay: […]S1P formation assay, single concentration […]
Format: biochemical
Settings: read-out: % inhibition at 50 μM

Chain of Sphingosine kinase 1 (SK1) (Q9NYA1 whole entry): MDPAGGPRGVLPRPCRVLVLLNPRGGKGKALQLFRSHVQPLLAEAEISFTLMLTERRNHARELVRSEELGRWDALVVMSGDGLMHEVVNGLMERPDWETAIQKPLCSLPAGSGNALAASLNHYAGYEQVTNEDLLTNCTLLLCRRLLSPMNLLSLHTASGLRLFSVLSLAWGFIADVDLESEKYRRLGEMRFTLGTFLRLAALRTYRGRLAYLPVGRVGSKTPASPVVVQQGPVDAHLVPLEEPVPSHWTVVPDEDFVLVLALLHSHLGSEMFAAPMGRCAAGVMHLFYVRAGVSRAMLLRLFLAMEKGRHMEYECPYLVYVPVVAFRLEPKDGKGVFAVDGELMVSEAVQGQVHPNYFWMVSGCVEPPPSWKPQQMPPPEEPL

CCCCCCCCc1ccc(CCC(N)(CO)CO)cc1 [FTY720]
inhibition at 50 µM: ~40%

— publication PMC2947314 (Cellular Signalling, 2010)
